In PMC4200789, “Design, Synthesis and Biological Evaluation of Sulfamide and Triazole Benzodiazepines as Novel p53-MDM2 Inhibitors” (International Journal of Molecular Sciences, 2014):
Like-named read-outs stand apart in the source and are kept apart here.

How the values were obtained:
[1] = biological target: MDM2 binding domain (1–118) / PMDM6-F peptide (p53-MDM2) (Homo sapiens, UniProt Q00987); experiment: fluorescence polarization (FP) p53-MDM2 binding assay
Description: A well-established fluorescence polarization (FP) binding assay was performed to measure the inhibitory activity (Ki) of designed compounds. […] The two phenyl rings of (R)-7c were located in the Phe19 and Trp23 pockets respectively and the propargyl group was partly inserted into the Leu26 pocket.
The dose-dependent binding experiments were carried out with serial dilution in DMSO of compounds. […] The Ki values were determined from a plot using nonlinear least-squares analysis. And curve fitting was performed using GraphPad Prism software.

A549 (wild-type p53) = experiment: in vitro antitumor activity, MTT; format: cell-based; settings: Homo sapiens, read-out: IC50 A549 (wt-p53)
Description: (§1) To investigate the in vitro antiproliferative activity of the designed p53-MDM2 inhibitors, four human tumor cell lines, namely U-2 OS (wild-type p53), A549 (wild-type p53), Saos-2 (p53 null), and NCI-H1299 (p53 null), were chosen for assaying.
(§2) The cellular growth inhibitory activity was determined using four human cancer cell lines [U-2 OS (wild-type p53), A549 (wild-type p53), Saos-2 (p53 null), and NCI-H1299 (p53 null)]. 5–6 × 10^4 cells per well were plated in 96-well plates. After culturing for 24 h, test compounds were added onto triplicate wells with different concentrations and 0.1% DMSO for control. After 72 h of incubation, 20 μL of MTT (3-[4,5-dimethylthiazol-2-yl]-2,5-diphenyltetrazoliumbromide) solution (5 mg/mL) was added to each well, and after the samples were shaken for 1min the plate was incubated further for 4 h at 37 °C. […] were dissolved with 100 μL of DMSO. The absorbance (OD) was quantitated with microplate using Biotek Synergy H2 at 570 nm (BioTek, Winooski, VT, USA). Wells containing no drugs were used as blanks.

NCI-H1299 (p53 null) = experiment: in vitro antitumor activity, MTT; format: cell-based; settings: Homo sapiens, read-out: IC50 NCI-H1299 (p53 null)
Description: as §1, §2

Saos-2 (p53 null) = experiment: in vitro antitumor activity, MTT; format: cell-based; settings: Homo sapiens, read-out: IC50 Saos-2 (p53 null)
Description: as §1, §2

U-2 OS (wild-type p53) = experiment: in vitro antitumor activity, MTT; format: cell-based, human; settings: for IC50: Homo sapiens, U2OS, 72 h, read-out: IC50 U-2 OS (wt-p53)
Description: as §1, §2

[2] = system: four human tumor cell lines (U-2 OS, A549, Saos-2, NCI-H1299); experiment: in vitro antitumor activity, MTT, four cell lines together; format: cell-based
Description: as §1, §2

[3] = design: method as in PMID 16630722, PMID 16600594, PMID 16290148; settings: cited from earlier work
[4] = FP binding assay, MDM2 (1–118) 10 nM, PMDM6-F 10 nM, read-out: Ki

Sequence of MDM2 binding domain (1–118) / PMDM6-F peptide (p53-MDM2) (Q00987 1-118): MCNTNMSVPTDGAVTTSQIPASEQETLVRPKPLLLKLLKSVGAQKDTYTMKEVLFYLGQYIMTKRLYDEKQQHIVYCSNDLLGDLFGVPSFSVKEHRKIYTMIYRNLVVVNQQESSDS

SMILES | Ki [1, 4] [µM] | IC50 (A549 (wild-type p53); A549, MTT, 72 h) [µM] | IC50 (NCI-H1299 (p53 null); NCI-H1299, MTT, 72 h) [µM] | IC50 (Saos-2 (p53 null); SAOS-2, MTT, 72 h) [µM] | IC50 (U-2 OS (wild-type p53); MTT) [µM] | IC50 (U-2 OS (wild-type p53)) [µM] | also measured
C#CCN1C(=O)C(c2ccc(Cl)cc2)N(CC#C)S(=O)(=O)c2ccccc21 (stereo not drawn) [Compound 7a, 3-(4-Chlorophenyl)-2,5-di(prop-2-yn-1-yl)-2,3-dihydrobenzo[f][1,2,5]thiadiazepin-4(5H)-one 1,1-dioxide] | 0.43 | > 100 | > 100 | > 100 | > 100 | – | –
C#CCN1C(c2ccc(Cl)cc2)C(=O)N(C=C=C)c2ccccc2S1(=O)=O (stereo not drawn) [Compound 7b, 3-(4-Chlorophenyl)-2-(prop-2-yn-1-yl)-5-(propa-1,2-dien-1-yl)-2,3-dihydrobenzo[f][1,2,5]thiadiazepin-4(5H)-one 1,1-dioxide] | 0.36 | > 100 | > 100 | > 100 | > 100 | – | –
C#CCN1C(c2ccc(Cl)cc2)C(=O)Nc2ccccc2S1(=O)=O (stereo not drawn) [Compound 7c, 3-(4-Chlorophenyl)-2-(prop-2-yn-1-yl)-2,3-dihydrobenzo[f][1,2,5]thiadiazepin-4(5H)-one 1,1-dioxide] | 0.26 | > 100 | > 100 | > 100 | > 100 | – | –
N#CCN1C(c2ccc(Cl)cc2)C(=O)Nc2ccccc2S1(=O)=O (stereo not drawn) [Compound 7d, 2-(3-(4-Chlorophenyl)-1,1-dioxido-4-oxo-4,5-dihydrobenzo[f][1,2,5]thiadiazepin-2(3H)-yl)acetonitrile] | > 100 | 92.3 | > 100 | > 100 | > 100 | – | –
O=C1Nc2ccccc2S(=O)(=O)N(Cc2cccc(F)c2)C1c1ccc(Cl)cc1 (stereo not drawn) [Compound 7e, 3-(4-Chlorophenyl)-2-(3-fluorobenzyl)-2,3-dihydrobenzo[f][1,2,5]thiadiazepin-4(5H)-one 1,1-dioxide] | > 100 | > 100 | > 100 | > 100 | 90.5 | – | –
O=C1Nc2ccccc2S(=O)(=O)N(Cc2c(F)cccc2F)C1c1ccc(Cl)cc1 (stereo not drawn) [Compound 7f, 3-(4-Chlorophenyl)-2-(2,6-difluorobenzyl)-2,3-dihydrobenzo[f][1,2,5]thiadiazepin-4(5H)-one 1,1-dioxide] | 78 | > 100 | > 100 | > 100 | > 100 | – | –
O=C1Nc2ccccc2S(=O)(=O)N(Cc2ccccc2)C1c1ccc(Cl)cc1 (stereo not drawn) [Compound 7g, 2-Benzyl-3-(4-chlorophenyl)-2,3-dihydrobenzo[f][1,2,5]thiadiazepin-4(5H)-one 1,1-dioxide] | 8.14 | > 100 | > 100 | > 100 | > 100 | – | –
O=C1Nc2ccccc2S(=O)(=O)N=C1c1ccc(Cl)cc1 [Compound 8, 3-(4-Chlorophenyl)benzo[f][1,2,5]thiadiazepin-4(5H)-one 1,1-dioxide] | 11.9 | > 100 | > 100 | > 100 | > 100 | – | p53-MDM2 inhibitory activity (in words) ([1]; FP binding assay): dramatic decrease of the inhibitory activity
O=C1Nc2ccc(Cl)cc2C(c2ccccc2)=NC1c1ccc(Cl)cc1 (stereo not drawn) [Compound 13, 7-Chloro-3-(4-chlorophenyl)-5-phenyl-1H-benzo[e][1,4]diazepin-2(3H)-one] | – | – | – | – | – | 3.12 | Ki [1]: 0.2 µM; IC50 (A549 (wild-type p53); A549, 72 h): 9.16 µM; IC50 (NCI-H1299 (p53 null); NCI-H1299, 72 h): 6.11 µM; IC50 (Saos-2 (p53 null); SAOS-2, 72 h): 3.01 µM
S=C1Nc2ccc(Cl)cc2C(c2ccccc2)=NC1c1ccc(Cl)cc1 (stereo not drawn) [Compound 14, 7-Chloro-3-(4-chlorophenyl)-5-phenyl-1H-benzo[e][1,4]diazepine-2(3H)-thione] | – | – | – | – | – | 5.31 | Ki [1]: 8.76 µM; IC50 (A549 (wild-type p53); A549, 72 h): 24.1 µM; IC50 (NCI-H1299 (p53 null); NCI-H1299, 72 h): 15.6 µM; IC50 (Saos-2 (p53 null); SAOS-2, 72 h): 3.67 µM
Clc1ccc(C2N=C(c3ccccc3)c3cc(Cl)ccc3-n3cnnc32)cc1 (stereo not drawn) [Compound 16, 8-Chloro-4-(4-chlorophenyl)-6-phenyl-4H-benzo[f][1,2,4]] | – | – | – | – | – | 4.17 | Ki [1]: 1.22 µM; IC50 (A549 (wild-type p53); A549, 72 h): 7.62 µM; IC50 (NCI-H1299 (p53 null); NCI-H1299, 72 h): 5.5 µM; IC50 (Saos-2 (p53 null); SAOS-2, 72 h): 3.55 µM; antiproliferative activity against U-2 OS relative to nutlin-3 (U-2 OS (wild-type p53); better than nutlin-3): about 4 fold
Clc1ccc(C2NC(c3ccccc3)c3cc(Cl)ccc3-n3cnnc32)cc1 (stereo not drawn) [Compound 17, 8-Chloro-4-(4-chlorophenyl)-6-phenyl-5,6-dihydro-4H-benzo[f][1,2,4]triazolo[4,3-a][1,4]diazepine] | – | – | – | – | – | 34 | Ki [1]: 2.8 µM; IC50 (A549 (wild-type p53); A549, 72 h): 26.8 µM; IC50 (NCI-H1299 (p53 null); NCI-H1299, 72 h): 34.6 µM; IC50 (Saos-2 (p53 null); SAOS-2, 72 h): 24.8 µM; in vitro antitumor activity (in words) [2]: poor activity
COc1ccc(C2=N[C@@H](c3ccc(Cl)cc3)[C@@H](c3ccc(Cl)cc3)N2C(=O)N2CCNC(=O)C2)c(OC(C)C)c1 [Nutlin-3, reference compound] | – | – | – | – | – | 16.3 | –
O=C(O)[C@H](c1ccc(Cl)cc1)N1C(=O)c2cc(I)ccc2NC(=O)[C@@H]1c1ccc(Cl)cc1 [TDP222669] | – | – | – | – | – | – | bioavailability [3]: limited bioavailability; in vivo clearance [3]: rapid in vivo clearance
